The values below come from patent US6500950B1, “Benzylidenepyrazolones, their preparation and use” (BASF Aktiengesellschaft, priority 1997, dated 2002).

Common to all, as to type: in vivo
The subject of assay [1] is Chenopodium album. Briefly: Post-emergence greenhouse experiment, herbicidal activity. As to conditions: post-emergence rate 0.125 or 0.0≅kg/ha of a.s., scale 0 to 100. An excerpt:
(§1) The seeds of the test plants were sown separately for each species. For the post-emergence treatment, the test plants were first grown to a plant height of 3 to 15 cm, depending on the plant habit, and only then treated with the active compounds which had been suspended or emulsified in water. The test plants for this purpose were either sown directly and grown in the same containers, or they were first grown separately as seedlings and transplanted into the test containers a few days prior to treatment. The rate of application for the post-emergence treatment was 0.125 or 0.0≅kg/ha of a.s. Depending on the species, the plants were kept at 10-25° C. or 20-35° C. The test period extended over 2 to 4 weeks. During this time, the plants were tended, and their response to the individual treatments was evaluated. Evaluation was carried out using a scale from 0 to 100. 100 means no emergence of the plants, or complete destruction of at least the aerial parts, and 0 means no damage, or normal course of growth. The plants used in the greenhouse experiments were from the following species: [table]

The subject of assay [2] is Polygonum persicaria. The assay is described as above. To be noted: post-emergence rate 0.125 or 0.0≅kg/ha of a.s., scale 0 to 100.
Text: as §1

For assay [3], the system named is Echinochloa crus-galli. Described as above. To be noted: for Test plants [damage in %] Echinochloa crus-galli: post-emergence.
Text: as §1, with “The rate of application for the post-emergence treatment was 0.125 or 0.0≅kg/ha of a.s.” left out

In assay [4] the test system is Setaria faberii. The assay is described as above. As to conditions: for Test plants [damage in %] Setaria faberii: post-emergence.
Text: as §1, with “The rate of application for the post-emergence treatment was 0.125 or 0.0≅kg/ha of a.s.” left out

The test system of assay [5] is Zea mays. As to the kind of experiment: Post-emergence greenhouse experiment, damage to useful plant. As to conditions: post-emergence rate 0.125 or 0.0≅kg/ha of a.s., scale 0 to 100.
Text: as §1

In assay [6] the test system is Amaranthus retroflexus. Briefly: Post-emergence greenhouse experiment, herbicidal activity.
Text: as §1, with “The rate of application for the post-emergence treatment was 0.125 or 0.0≅kg/ha of a.s.” left out, “growth.” for “growth. The plants used in the greenhouse experiments were from the following species: [table]”

The subject of assay [7] is Solanum nigrum. Described as above.
Text: as §1, with “The rate of application for the post-emergence treatment was 0.125 or 0.0≅kg/ha of a.s.” left out, “growth.” for “growth. The plants used in the greenhouse experiments were from the following species: [table]”

Where [8] appears, read: greenhouse, post-emergence rate 0.125 or 0.0≅kg/ha of a.s., scale 0 to 100.
Where [9] appears, read: application rate 0.25 g/ha of a.s.
The mark [10] stands for this setting: application rate 0.5 g/ha of a.s.

A value given as a limit tells only on which side of the number the result lay.

In the case of `CCN1N=CC(=C(Cl)c2ccc(S(C)(=O)=O)c(C3=NOCC3)c2Cl)C1=O` [I.119, cis-4-[Chloro(2-chloro-3-(4,5-dihydroisoxazol-3-yl)-4-methylsulfonylphenyl)methylene]-2-ethyl-2,4-dihydropyrazol-3-one], the “damage of the plants” value in assay [1], in assay [2], in assay [3] (setting [8]) and in assay [4] (setting [8]) was greater than 98% throughout. Also, the “Test plants [damage in %] Echinochloa crus-galli” value in assay [3] (setting [9]) and in assay [3] (setting [10]) was 100% throughout. Besides, the “Test plants [damage in %] Setaria faberii” value in assay [4] (setting [9]) and in assay [4] (setting [10]) was 100% in each case. Besides, the “damage of the useful plant maize” value in assay [5] was found to be 0%. The “Test plants [damage in %] Amaranthus retroflexus” value in assay [6] (setting [9]) and in assay [6] (setting [10]) was 100% throughout. Moreover, the “Test plants [damage in %] Solanum nigrum” value in assay [7] (setting [9]) and in assay [7] (setting [10]) was 100% in each case.
